Results taken from patent US10882871B2, “18/19F-labelled compounds which target the prostate specific membrane antigen” (BRITISH COLUMBIA CANCER AGENCY BRANCH, priority 2016, dated 2021).
Values joined by “and” are separate entries in the source; they are usually repeats but may differ in a detail not shown here. Equal entries are not always repeated.

Tested on: tumors derived from LNCaP cells
Assay: PET/CT imaging and biodistribution of F-18 labeled HTK-01069 and HTK-01070 in tumor-bearing mice
Assay type: in vivo, mouse (NODSCID 1L2RγKO male mice)
Procedure: LNCap cell line used in the tumor model was obtained commercially from ATTC (LNCaP clone FGC, CRL-1740). It was established from a metastatic site of left supraclavicular lymph node of human prostatic adenocarcinoma. Cells were cultured in PRMI 1640 (StemCell Technologies, Vancouver, BC) supplemented by 10% FBS, 100 U/mL penicillin and 100 μg/mL streptomycin at 37° C. in a humidified incubator containing 5% CO2. Cells grown to 80-90% confluence were then washed with sterile phosphate-buffered saline (1×PBS pH 7.4) and trypsinization. The collected cells number was counted with Hemacytometer (Hausser Scientific).
Tumor implantation: Imaging and biodistribution experiments were performed using NODSCID 1L2RγKO male mice. Three or four mice in each cage equipped with enrichments. The mice were maintained and the experiments were conducted in according to the guidelines established by Canadian Council on Animal Care and approved by Animal Ethics Committee of the University of British Columbia. Mice were housed under pathogen-free conditions and kept on twelve hours light and twelve hours dark cycle in the Animal Research Centre, British Columbia Cancer Research Centre, Vancouver, Canada.
Mice were anesthetized by inhalation with 2.5% isoflurane in 2.0 L/min of oxygen during cells implantation. Mice were implanted subcutaneously with 1×10^7 LNCaP cells behind left shoulder. Mice were imaged or used in biodistribution studies when the tumor grew up to reach 5-8 mm in diameter during 5-6 weeks.
PET/CT Imaging: PET imaging experiments were conducted using Siemens inveon micro PET/CT scanner. Each tumor bearing mouse was injected ˜6.44 MBq of F-18 labeled HTK-01069 and ˜7.08 MBq of F-18 labeled HTK-01070 through the tail vein under anesthesia. After one hour, the mice were sedated again with 2% isoflurane inhalation and positioned in the scanner. Static PET imaging was performed to determined activity uptake of tumor and other organs. A CT scan was obtained for localization and attenuation correction after segmentation for reconstructing the PET images. The data was acquired by scanning the mice for 10 minutes each. The mice were kept warm by a heating pad during acquisition. The mice were euthanized after imaging and followed by biodistribution. Please see FIGS. 2 and 3 of this specification for reconstructed PET images for 1L2RγKO mice injected with HTK-01069 and HTK-01070 respectively.
Blood was withdrawn immediately, and the organs of interest were quickly removed. Each organ was weighed and the tissue radioactivity was measured with a Cobra II gamma counter (Packard), normalized to the injected dose using a standard curve and expressed as the percentage of the injected dose per gram of tissue (% ID/g). Biodistribution data are shown for HTK-01069 in Tables 5, 6 and 7 and HTK-01070 in Tables 8, 9, 10 of the specification respectively.

[1] = 1 h p.i. with co-injection of 0.5 mg DCFPyL, Avg
[2] = 1 h p.i. with co-injection of 0.5 mg DCFPyL, single mice

- Biodistribution Adrenals [1]: 0.35 % ID/g
- Biodistribution Blood [1]: 0.45 % ID/g
- Biodistribution Bone [1]: 0.13 % ID/g
- Biodistribution Brain [1]: 0.03 % ID/g
- Biodistribution Fat [1]: 0.11 % ID/g
- Biodistribution Heart [1]: 0.25 % ID/g
- Biodistribution Intestine [1]: 0.57 % ID/g
- Biodistribution Kidney [1]: 3.54 % ID/g
- Biodistribution Liver [1]: 0.11 % ID/g
- Biodistribution Lung [1]: 0.15 % ID/g
- Biodistribution Muscle [1]: 0.30 % ID/g
- Biodistribution Pancreas [1]: 3.00 % ID/g
- Biodistribution Seminal [1]: 0.38 % ID/g
- Biodistribution Spleen [1]: 0.11 % ID/g
- Biodistribution Stomach [1]: 0.13 % ID/g
- Biodistribution Tail [1]: 0.44 % ID/g
- Biodistribution Testes [1]: 0.10 % ID/g
- Biodistribution Tumour [1]: 0.33 % ID/g
- Biodistribution Adrenals (1 h p.i., Avg): 3.98 % ID/g
- Biodistribution Blood (1 h p.i., Avg): 0.52 % ID/g
- Biodistribution Bone (1 h p.i., Avg): 0.27 % ID/g
- Biodistribution Brain (1 h p.i., Avg): 0.03 % ID/g
- Biodistribution Fat (1 h p.i., Avg): 1.09 % ID/g
- Biodistribution Heart (1 h p.i., Avg): 1.16 % ID/g
- Biodistribution Intestine (1 h p.i., Avg): 0.55 % ID/g
- Biodistribution Kidney (1 h p.i., Avg): 92.90 % ID/g
- Biodistribution Liver (1 h p.i., Avg): 0.14 % ID/g
- Biodistribution Lung (1 h p.i., Avg): 0.26 % ID/g
- Biodistribution Muscle (1 h p.i., Avg): 0.36 % ID/g
- Biodistribution Pancreas (1 h p.i., Avg): 2.77 % ID/g
- Biodistribution Seminal (1 h p.i., Avg): 2.82 % ID/g
- Biodistribution Spleen (1 h p.i., Avg): 0.48 % ID/g
- Biodistribution Stomach (1 h p.i., Avg): 2.99 % ID/g
- Biodistribution Tail (1 h p.i., Avg): 0.62 % ID/g
- Biodistribution Testes (1 h p.i., Avg): 0.53 % ID/g
- Biodistribution Tumour (1 h p.i., Avg): 5.58 % ID/g
- Biodistribution Brain (1 h p.i., single mice): 0.03 % ID/g
- Biodistribution Adrenals (2 h p.i., Avg): 2.01 % ID/g
- Biodistribution Blood (2 h p.i., Avg): 0.16 % ID/g
- Biodistribution Bone (2 h p.i., Avg): 0.12 % ID/g
- Biodistribution Brain (2 h p.i., Avg): 0.03 % ID/g
- Biodistribution Fat (2 h p.i., Avg): 0.43 % ID/g
- Biodistribution Heart (2 h p.i., Avg): 0.72 % ID/g
- Biodistribution Intestine (2 h p.i., Avg): 0.75 % ID/g
- Biodistribution Kidney (2 h p.i., Avg): 51.79 % ID/g
- Biodistribution Liver (2 h p.i., Avg): 0.06 % ID/g
- Biodistribution Lung (2 h p.i., Avg): 0.12 % ID/g
- Biodistribution Muscle (2 h p.i., Avg): 0.24 % ID/g
- Biodistribution Pancreas (2 h p.i., Avg): 2.24 % ID/g
- Biodistribution Seminal (2 h p.i., Avg): 3.24 % ID/g
- Biodistribution Spleen (2 h p.i., Avg): 0.26 % ID/g
- Biodistribution Stomach (2 h p.i., Avg): 2.25 % ID/g
- Biodistribution Tail (2 h p.i., Avg): 0.31 % ID/g
- Biodistribution Testes (2 h p.i., Avg): 0.39 % ID/g
- Biodistribution Tumour (2 h p.i., Avg): 5.36 % ID/g
Compound: C[N+](C)(Cc1ccc(C(=O)NCCCC[C@H](NC(=O)N[C@@H](CCC(=O)O)C(=O)O)C(=O)O)cc1)C[B-](F)(F)[18F] [F-18 HTK-01069]
- Biodistribution Bone [2]: 0.15 % ID/g and 0.17 % ID/g and 0.11 % ID/g and 0.10 % ID/g
- Biodistribution Brain [2]: 0.02 % ID/g and 0.03 % ID/g and 0.04 % ID/g
- Biodistribution Heart [2]: 0.17 % ID/g and 0.31 % ID/g and 0.27 % ID/g and 0.26 % ID/g
- Biodistribution Kidney [2]: 2.35 % ID/g and 3.57 % ID/g and 4.08 % ID/g and 4.15 % ID/g
- Biodistribution Lung [2]: 0.10 % ID/g and 0.20 % ID/g and 0.16 % ID/g and 0.13 % ID/g
- Biodistribution Muscle [2]: 0.22 % ID/g and 0.36 % ID/g and 0.37 % ID/g and 0.26 % ID/g
- Biodistribution Pancreas [2]: 2.40 % ID/g and 3.36 % ID/g and 2.71 % ID/g and 3.53 % ID/g
- Biodistribution Stomach [2]: 0.08 % ID/g and 0.13 % ID/g and 0.15 % ID/g
- Biodistribution Tail [2]: 0.43 % ID/g and 0.41 % ID/g and 0.37 % ID/g and 0.55 % ID/g
- Biodistribution Testes [2]: 0.07 % ID/g and 0.13 % ID/g and 0.12 % ID/g and 0.09 % ID/g
- Biodistribution Tumour [2]: 0.30 % ID/g and 0.35 % ID/g and 0.26 % ID/g and 0.42 % ID/g
- Biodistribution Fat (1 h p.i., single mice): 0.95 % ID/g and 1.21 % ID/g and 0.74 % ID/g and 1.46 % ID/g
- Biodistribution Intestine (1 h p.i., single mice): 0.43 % ID/g and 0.59 % ID/g and 0.54 % ID/g and 0.64 % ID/g
- Biodistribution Lung (1 h p.i., single mice): 0.21 % ID/g and 0.28 % ID/g and 0.22 % ID/g and 0.32 % ID/g
- Biodistribution Muscle (1 h p.i., single mice): 0.36 % ID/g and 0.39 % ID/g and 0.34 % ID/g and 0.35 % ID/g
- Biodistribution Pancreas (1 h p.i., single mice): 2.32 % ID/g and 2.86 % ID/g and 2.76 % ID/g and 3.17 % ID/g
- Biodistribution Tail (1 h p.i., single mice): 0.70 % ID/g and 0.47 % ID/g and 0.57 % ID/g and 0.74 % ID/g
- Biodistribution Testes (1 h p.i., single mice): 0.44 % ID/g and 0.58 % ID/g and 0.51 % ID/g and 0.60 % ID/g
- Biodistribution Tumour (1 h p.i., single mice): 7.84 % ID/g and 4.16 % ID/g and 4.47 % ID/g and 5.86 % ID/g
- Biodistribution Bone (2 h p.i., single mice): 0.12 % ID/g and 0.08 % ID/g and 0.14 % ID/g and 0.13 % ID/g
- Biodistribution Brain (2 h p.i., single mice): 0.04 % ID/g and 0.02 % ID/g and 0.03 % ID/g
- Biodistribution Heart (2 h p.i., single mice): 0.63 % ID/g and 0.61 % ID/g and 0.79 % ID/g and 0.84 % ID/g
- Biodistribution Intestine (2 h p.i., single mice): 0.78 % ID/g and 0.92 % ID/g and 0.63 % ID/g and 0.68 % ID/g
- Biodistribution Kidney (2 h p.i., single mice): 62.04 % ID/g and 35.60 % ID/g and 49.89 % ID/g and 59.65 % ID/g
- Biodistribution Lung (2 h p.i., single mice): 0.16 % ID/g and 0.09 % ID/g and 0.11 % ID/g and 0.14 % ID/g
- Biodistribution Muscle (2 h p.i., single mice): 0.29 % ID/g and 0.18 % ID/g and 0.22 % ID/g and 0.28 % ID/g
- Biodistribution Pancreas (2 h p.i., single mice): 2.39 % ID/g and 1.89 % ID/g and 2.21 % ID/g and 2.48 % ID/g
- Biodistribution Spleen (2 h p.i., single mice): 0.31 % ID/g and 0.18 % ID/g and 0.21 % ID/g and 0.33 % ID/g
- Biodistribution Tail (2 h p.i., single mice): 0.29 % ID/g and 0.24 % ID/g and 0.36 % ID/g and 0.34 % ID/g
- Biodistribution Testes (2 h p.i., single mice): 0.41 % ID/g and 0.37 % ID/g and 0.39 % ID/g
- Biodistribution Tumour (2 h p.i., single mice): 5.03 % ID/g and 4.25 % ID/g and 5.74 % ID/g and 6.41 % ID/g
